The test system of assay [1] is Enterococcus faecalis ATCC 29212. Kind of assay: Minimum Inhibitory Concentration (MIC) in LB media. Type of assay: cell-based. Particulars: Enterococcus faecalis, ATCC29212, read-out: Minimum Inhibitory Concentration E. faecalis ATCC 29212. The source says:
(§1) The compounds of Formula (I) are of interest due to their potent antibacterial effects. The ability of the invention compounds disclosed herein to achieve an antibacterial effect may be evaluated with regard to their ability to inhibit the growth of bacterial species like Escherichia coli ATCC 25922, Staphylococcus aureus ATCC 29213, Klebsiella pneumoniae ATCC 13883, Acinetobacter baumannii ATCC 19606, Pseudomonas aeruginosa ATCC 27853, Enterococcus faecalis ATCC 29212 and Enterococcus faecalis ATCC 29212 using an assay based on the following Minimum Inhibitory Concentration (MIC) protocol:
(§2) The medium sterility is checked by incubating at 37° C. for a period of 48 h.
(§3) Bacterial cultures that are stored as glycerol stocks at −80° C. are sub cultured on LB agar plates to obtain isolated colonies. A single colony of each strain is cultured in LB broth. The cultures are incubated at 37 C, 200 rpm till they reach an optical density (OD at 600 nm) of 0.8 to 1. […] Test compounds are dissolved in dimethyl sulfoxide (DMSO) to a stock concentration of 4 mg/ml. A twofold dilution series of this DMSO stock is prepared in a 96 well V bottom microtitre plate from rows A to H. A 3 μL volume of these dilutions are transferred to a 96-well flat bottom microtitre assay plate. Controls to monitor the effects of DMSO and media sterility are included. Each well is inoculated with 150 μL of the above diluted culture. The plates are incubated at 37° C. overnight in a humidified incubator. The following morning, the plates are read using a Spectrophotometer at 600 nm wavelength. […] The antibacterial activity (MIC) determined against representative Gram positive (S. aureus, E. faecalis) and Gram negative (E.coli, -P. aeruginosa and A. baumannii) pathogen were reported Table 1.

For assay [2], the system named is Escherichia coli ATCC 25922. Kind of assay: Minimum Inhibitory Concentration (MIC) in LB media. The format is cell-based. The note with it: Escherichia coli, ATCC25922, read-out: Minimum Inhibitory Concentration E. coli ATCC 25922.
Source text: as §1, §2, §3

Assay [3] deals with Klebsiella pneumoniae ATCC 13883. Kind of assay: Minimum Inhibitory Concentration (MIC) in LB media. The note with it: Klebsiella pneumoniae, ATCC13883, read-out: Minimum Inhibitory Concentration K. pneumoniae ATCC 13883. Type of assay: cell-based.
Source text: as §1, §2, §3

The test system of assay [4] is Pseudomonas aeruginosa ATCC 27853. Kind of assay: Minimum Inhibitory Concentration (MIC) in LB media. The note with it: Pseudomonas aeruginosa, ATCC27853, read-out: Minimum Inhibitory Concentration P. aeruginosa ATCC 27853. Type of assay: cell-based.
Source text: as §1, §2, §3

For assay [5], the system named is Staphylococcus aureus ATCC 29213. Kind of assay: Minimum Inhibitory Concentration (MIC) in LB media. Type of assay: cell-based. Particulars: Staphylococcus aureus, ATCC29213, read-out: Minimum Inhibitory Concentration S. aureus ATCC 29213.
Source text: as §1, §2, §3

The test system of assay [6] is K. pneumoniae [ATCC13883]. Kind of assay: Neutropenic thigh infection model in rat. Type of assay: in vivo. Particulars: 10 mg/kg, i.v. bolus, neutropenic rat.
The test system of assay [7] is Acinetobacter baumannii ATCC 19606. Kind of assay: Minimum Inhibitory Concentration (MIC) in LB media. The format is cell-based. Particulars: Acinetobacter baumannii, ATCC19606.
Procedure: Bacterial cultures that are stored as glycerol stocks at −80° C. are sub cultured on LB agar plates to obtain isolated colonies. A single colony of each strain is cultured in LB broth. […] Test compounds are dissolved in dimethyl sulfoxide (DMSO) to a stock concentration of 4 mg/ml. A twofold dilution series of this DMSO stock is prepared in a 96 well V bottom microtitre plate from rows A to H. A 3 μL volume of these dilutions are transferred to a 96-well flat bottom microtitre assay plate. Controls to monitor the effects of DMSO and media sterility are included. Each well is inoculated with 150 μL of the above diluted culture. The plates are incubated at 37° C. overnight in a humidified incubator. The following morning, the plates are read using a Spectrophotometer at 600 nm wavelength.
The target of another assay is E. coli DNA gyrase (Escherichia coli, UniProt P0AES4+P0AES6). Description: biochemical. The note with it: supercoiling assay.
A further assay addresses E. coli topoisomerase IV (Escherichia coli, UniProt P0AFI2+P20083). Kind of assay: biochemical. The note with it: decatenation assay; read-out: E. coli Topo IV IC50.
Assay [8] has as its target T1, human ether a go-go related gene (hERG) K+ channel (Homo sapiens, UniProt Q12809).
T1 construct: Chinese Hamster Ovary cell line stably expressing the full-length hERG potassium channel; expressed in transfected cells
Kind of assay: hERG inhibition assay, QPatch HTX automated electrophysiology. The format is cell-based. The note with it: CHO cell line stably expressing hERG, whole-cell patch clamp, maximum test concentration 300 μM. On the technique in general: The hERG channel carries a current that helps repolarise heart muscle cells.
Procedure: The compounds were tested for inhibition of the human ether a go-go related gene (hERG) K+ channel using QPatch HTX automated electrophysiology.
Compounds were solubilised to 100 mM in DMSO before dilution in HBPS to 300 μM.
Electrophysiological recordings were made from a Chinese Hamster Ovary cell line stably expressing the full-length hERG potassium channel. Single cell ionic currents were measured in whole-cell patch clamp configuration at room temperature (21-23° C.) using the QPatch HTX platform (Sophion). Intracellular solution contained (mM): 120 KF, 20 KCl, 10 EGTA, 10 HEPES and was buffered to pH 7.3. […] Cells were clamped at a holding potential of −80 mV. […] This sweep was repeated 10 times at 10 s intervals. hERG currents were measured from the tail step and referenced to the holding current. Compounds were then incubated for 2 minutes prior to a second measurement of ion channel current using an identical pulse train.

Converted amounts (≈) assume the structure as drawn. “And” between values parts separate entries of the source, which are not always exact repeats. Equal values may be shown once.

From patent US10912780B2, “Heterocyclic compounds useful as anti-bacterial agents and method for production thereof” (Bugworks Research, Inc., priority 2017, dated 2021) come the findings set out here.

E. coli DNA gyrase, sequence (P0AES4 whole entry, one chain of several): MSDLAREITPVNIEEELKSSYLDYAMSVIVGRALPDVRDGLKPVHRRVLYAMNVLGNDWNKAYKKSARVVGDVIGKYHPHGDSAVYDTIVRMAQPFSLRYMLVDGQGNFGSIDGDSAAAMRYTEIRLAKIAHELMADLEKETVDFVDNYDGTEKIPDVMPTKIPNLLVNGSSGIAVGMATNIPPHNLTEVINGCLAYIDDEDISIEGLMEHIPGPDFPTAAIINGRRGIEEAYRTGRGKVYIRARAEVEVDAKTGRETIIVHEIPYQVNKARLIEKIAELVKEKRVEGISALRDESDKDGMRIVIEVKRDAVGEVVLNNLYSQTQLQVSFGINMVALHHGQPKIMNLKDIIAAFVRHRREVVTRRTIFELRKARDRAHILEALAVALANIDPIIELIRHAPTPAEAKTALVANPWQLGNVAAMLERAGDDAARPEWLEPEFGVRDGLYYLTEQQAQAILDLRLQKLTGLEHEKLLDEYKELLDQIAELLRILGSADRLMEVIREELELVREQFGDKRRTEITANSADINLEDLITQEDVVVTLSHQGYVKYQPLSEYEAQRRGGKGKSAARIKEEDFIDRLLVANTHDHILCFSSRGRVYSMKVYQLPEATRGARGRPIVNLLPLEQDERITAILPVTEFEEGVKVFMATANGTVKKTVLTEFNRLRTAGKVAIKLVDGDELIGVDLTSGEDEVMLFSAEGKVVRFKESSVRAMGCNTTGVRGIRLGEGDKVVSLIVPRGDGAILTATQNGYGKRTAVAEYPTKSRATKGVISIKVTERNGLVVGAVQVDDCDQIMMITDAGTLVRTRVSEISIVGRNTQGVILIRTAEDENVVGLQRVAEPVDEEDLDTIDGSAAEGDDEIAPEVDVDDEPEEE
E. coli topoisomerase IV, sequence (P20083 whole entry): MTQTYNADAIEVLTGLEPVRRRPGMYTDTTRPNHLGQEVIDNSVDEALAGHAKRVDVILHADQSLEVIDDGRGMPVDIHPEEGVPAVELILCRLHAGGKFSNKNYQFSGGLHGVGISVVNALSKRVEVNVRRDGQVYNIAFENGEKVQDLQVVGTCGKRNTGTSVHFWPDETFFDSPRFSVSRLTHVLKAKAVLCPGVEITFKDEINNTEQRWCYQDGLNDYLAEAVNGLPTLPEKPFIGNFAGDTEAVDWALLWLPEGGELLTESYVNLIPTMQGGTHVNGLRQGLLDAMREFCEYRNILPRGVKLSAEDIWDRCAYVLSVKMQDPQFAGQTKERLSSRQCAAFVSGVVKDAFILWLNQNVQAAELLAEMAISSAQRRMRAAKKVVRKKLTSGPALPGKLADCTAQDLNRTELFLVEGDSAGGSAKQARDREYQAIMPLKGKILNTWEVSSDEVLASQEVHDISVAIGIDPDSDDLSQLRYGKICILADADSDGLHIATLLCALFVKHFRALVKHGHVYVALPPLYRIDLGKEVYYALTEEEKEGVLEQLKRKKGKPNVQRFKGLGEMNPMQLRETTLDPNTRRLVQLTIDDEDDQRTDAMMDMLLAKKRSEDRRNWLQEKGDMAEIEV
E. coli topoisomerase IV, sequence (P0AFI2 whole entry): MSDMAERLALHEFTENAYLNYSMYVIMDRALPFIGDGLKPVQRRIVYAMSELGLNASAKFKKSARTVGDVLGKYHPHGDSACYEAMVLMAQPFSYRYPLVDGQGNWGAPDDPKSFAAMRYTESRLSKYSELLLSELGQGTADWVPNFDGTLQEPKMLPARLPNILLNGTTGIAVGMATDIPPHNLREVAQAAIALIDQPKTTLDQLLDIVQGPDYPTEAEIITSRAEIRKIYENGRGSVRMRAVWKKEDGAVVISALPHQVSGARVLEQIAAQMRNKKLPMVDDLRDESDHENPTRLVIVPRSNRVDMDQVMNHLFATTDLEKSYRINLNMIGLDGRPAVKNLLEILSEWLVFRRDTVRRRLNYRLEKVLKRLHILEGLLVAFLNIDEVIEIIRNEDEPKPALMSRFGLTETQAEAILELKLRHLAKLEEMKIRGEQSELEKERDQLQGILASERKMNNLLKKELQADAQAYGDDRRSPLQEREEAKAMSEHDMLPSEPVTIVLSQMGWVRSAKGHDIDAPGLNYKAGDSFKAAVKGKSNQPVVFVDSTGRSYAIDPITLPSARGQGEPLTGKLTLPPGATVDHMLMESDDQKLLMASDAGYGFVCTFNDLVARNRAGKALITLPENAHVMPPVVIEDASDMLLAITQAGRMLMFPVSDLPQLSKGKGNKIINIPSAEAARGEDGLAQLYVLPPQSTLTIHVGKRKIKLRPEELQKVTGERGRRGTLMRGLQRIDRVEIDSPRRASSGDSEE
T1 sequence (Q12809 whole entry): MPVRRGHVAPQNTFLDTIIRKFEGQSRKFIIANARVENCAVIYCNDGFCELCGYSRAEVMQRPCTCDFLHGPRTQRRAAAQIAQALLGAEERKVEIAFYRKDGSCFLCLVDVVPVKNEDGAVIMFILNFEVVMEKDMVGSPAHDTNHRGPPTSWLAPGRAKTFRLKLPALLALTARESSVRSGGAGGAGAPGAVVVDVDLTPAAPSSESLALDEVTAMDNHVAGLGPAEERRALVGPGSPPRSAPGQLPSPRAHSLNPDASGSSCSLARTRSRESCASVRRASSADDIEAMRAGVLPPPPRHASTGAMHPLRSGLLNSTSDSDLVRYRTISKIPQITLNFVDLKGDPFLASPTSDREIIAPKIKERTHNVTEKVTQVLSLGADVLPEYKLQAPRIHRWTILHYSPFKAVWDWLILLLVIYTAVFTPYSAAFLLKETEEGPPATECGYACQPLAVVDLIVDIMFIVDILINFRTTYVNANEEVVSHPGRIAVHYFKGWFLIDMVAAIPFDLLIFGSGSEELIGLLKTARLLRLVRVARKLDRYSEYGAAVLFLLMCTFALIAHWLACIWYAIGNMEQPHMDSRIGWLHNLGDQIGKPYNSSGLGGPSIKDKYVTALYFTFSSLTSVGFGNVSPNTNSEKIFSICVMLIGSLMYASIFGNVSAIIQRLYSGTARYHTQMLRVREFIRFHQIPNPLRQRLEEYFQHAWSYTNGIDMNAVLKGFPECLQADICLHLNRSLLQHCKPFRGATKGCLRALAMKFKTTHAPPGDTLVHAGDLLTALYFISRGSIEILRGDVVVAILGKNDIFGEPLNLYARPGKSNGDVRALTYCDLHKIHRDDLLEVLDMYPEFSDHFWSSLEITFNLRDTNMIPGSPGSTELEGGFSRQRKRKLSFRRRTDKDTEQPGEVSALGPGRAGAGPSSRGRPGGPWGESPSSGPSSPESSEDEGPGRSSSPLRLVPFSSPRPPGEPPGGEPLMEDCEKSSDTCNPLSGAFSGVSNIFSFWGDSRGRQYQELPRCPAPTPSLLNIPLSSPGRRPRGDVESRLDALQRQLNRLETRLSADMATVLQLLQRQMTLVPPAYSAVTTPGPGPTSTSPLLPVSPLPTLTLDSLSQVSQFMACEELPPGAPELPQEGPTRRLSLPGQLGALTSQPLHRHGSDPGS

Consider `O=C(O)c1cn(C2CC2)c2cc(N3CCNCC3)c(F)cc2c1=O` [Ciprofloxacin, reference compound], for which the MIC is 0.4 µg/mL (≈ 1.21 µM) in [1]; 0.012 µg/mL (≈ 0.0362 µM) in assay [2]; 0.05 µg/mL (≈ 0.151 µM) in assay [3]; 0.1 µg/mL (≈ 0.302 µM) in assay [4]; 0.4 µg/mL (≈ 1.21 µM) in assay [5]. Further, the “MEAN ± SD (Log 10 CFU/g thigh)” value in assay [6] (10 hr post infection) is 3.28 ± 0.19 Log 10 CFU/g thigh. The “Mean Log10CFU/g thigh reduction (wrt 2 h PI control: 4.72 Log10CFU/g thigh)” value in assay [6] (10 hr post infection) came out at 1.44 Log10CFU/g thigh. In addition, in assay [6] (individual animals, thigh harvested 10 hr post infection), the “Log 10 CFU/g thigh” value was 3.49 Log 10 CFU/g thigh and 3.11 Log 10 CFU/g thigh and 3.25 Log 10 CFU/g thigh.
The term IC50 denotes the concentration at which inhibition is half-maximal. For `Cn1c(=O)ccc2ccc(F)c(CCCNC[C@H]3CN(c4cnc5c(n4)NC(=O)CO5)C(=O)O3)c21` [Example 22, (S)-6-(5-(((3-(7-fluoro-1-methyl-2-oxo-1,2-dihydroquinolin-8-yl)propyl)amino)methyl)-2-oxooxazolidin-3-yl)-2H-pyrazino[2,3-b][1,4]oxazin-3(4H)-one], the MIC in assay [1] is 0.06 µg/mL (≈ 0.124 µM); in assay [2], 0.03 µg/mL (≈ 0.0622 µM); in assay [3] it was 0.06 µg/mL (≈ 0.124 µM); in assay [4] it was 0.25 µg/mL (≈ 0.518 µM); in assay [5], at most 0.015 µg/mL; in [7] it was 0.015 µg/mL (≈ 0.0311 µM). Moreover, the half-inhibitory concentration (IC50) stood at 3.2 nM at E. coli DNA gyrase, 19 nM at E. coli topoisomerase IV and 128000 nM in assay [8].
Consider `Cn1c(=O)ccc2ccc(F)c(CCNC[C@H]3CN(c4ncc5c(n4)NC(=O)CO5)C(=O)O3)c21` [Example 16, (S)-2-(5-(((2-(7-fluoro-1-methyl-2-oxo-1,2-dihydroquinolin-8-yl)ethyl)amino)methyl)-2-oxooxazolidin-3-yl)-6H-pyrimido[5,4-b][1,4]oxazin-7(8H)-one], for which the MIC worked out at 0.25 µg/mL (≈ 0.534 µM) in assay [1]; 0.06 µg/mL (≈ 0.128 µM) in assay [2]; 0.25 µg/mL (≈ 0.534 µM) in [3]; 1 µg/mL (≈ 2.13 µM) in assay [4]; 0.06 µg/mL (≈ 0.128 µM) in assay [5]; 0.25 µg/mL (≈ 0.534 µM) in assay [7]. For the same compound, the IC50 on E. coli DNA gyrase amounted to 41 nM; at E. coli topoisomerase IV it was 112 nM; in [8], 204000 nM.
On to `O=C1COc2ccc(N3C[C@H](CNCCc4c(F)ccc5ccc(=O)n(CCO)c45)OC3=O)nc2N1` [Example 10, (S)-6-(5-(((2-(7-fluoro-1-(2-hydroxyethyl)-2-oxo-1,2-dihydroquinolin-8-yl)ethyl)amino)methyl)-2-oxooxazolidin-3-yl)-2H-pyrido[3,2-b][1,4]oxazin-3(4H)-one], for which the MIC stood at 0.06 µg/mL (≈ 0.121 µM) in [1]; 0.03 µg/mL (≈ 0.0603 µM) in assay [2]; 0.06 µg/mL (≈ 0.121 µM) in assay [3]; 0.5 µg/mL (≈ 1.01 µM) in [4]; 0.015 µg/mL (≈ 0.0302 µM) in assay [5]; 0.125 µg/mL (≈ 0.251 µM) in assay [7]. Moreover, the IC50 at E. coli DNA gyrase amounted to 5.9 nM; on E. coli topoisomerase IV, 30 nM; in [8], 71000 nM.
On to `Cn1c(=O)ccc2ccc(F)c(C[C@H](O)CNC[C@H]3CN(c4ccc5c(n4)NC(=O)CO5)C(=O)O3)c21` (single isomer, unassigned) [Example 18], for which the MIC came to 0.5 µg/mL (≈ 1.01 µM) in [1]; 0.125 µg/mL (≈ 0.251 µM) in assay [2]; 0.125 µg/mL (≈ 0.251 µM) in [3]; 1 µg/mL (≈ 2.01 µM) in assay [4]; 0.125 µg/mL (≈ 0.251 µM) in assay [5]; 0.5 µg/mL (≈ 1.01 µM) in assay [7]. The IC50 was 13 nM against E. coli DNA gyrase, 24 nM on E. coli topoisomerase IV and 237000 nM in assay [8].
